# Earlier results in patent US20060204571A1, “Stable compositions of bupropion or its pharmaceutically acceptable salts” (Sun Pharmaceutical Industries Limited, priority 2005, published 2006).
# Settings: background statement
compound,measurement,value
"CC(NC(C)(C)C)C(=O)c1cccc(Cl)c1.Cl (racemic) [Bupropion hydrochloride, (±)-1-(3-chlorophenyl)-2-[(1,1-dimethylethyl)amino]-1-propanone hydrochloride]",solubility in water (in words),water-soluble
